Data as given in patent publication US20190209568A1, “METHOD OF PREVENTING OR TREATING HEARING LOSS” (SUPPORT-VENTURE GMBH, priority 2016, published 2019).

Tested on: auditory hair cells of organ of Corti (OC) explants
Test: Protection of auditory hair cells from gentamicin-induced loss in organ of Corti explant culture (hair cell counting, basal turn)
Assay type: cell-based, C57bl/6j mice
Settings: for hair cells lost / protection from loss of hair cells / loss of hair cells: 24 hours; for protection against gentamicin-induced loss of hair cells (in words): Example 1: 5 μM pioglitazone, 30 μM pamapimod, or both, with gentamicin, 24 hr in culture; for loss of hair cells: p5 mouse OC explants, basal turn
Experimental: All animal procedures were carried out according to protocols approved by the Kantonales Veterinäramt, Basel, Switzerland. Postnatal day 5 (p5) C57bl/6j were used for the studies. Studies were performed in vitro, using organ of Corti (OC) explants from p5 animals. Animals were sacrificed and the cochleae carefully dissected to separate the organ of Corti from the spiral ganglion, stria vascularis and Reissner's membrane [Sobkowicz H M, Loftus J M, Slapnick S M. Acta Otolaryngol Suppl. 1993; 502:3-36].
OCs were harvested and then placed in culture medium [Dulbecco's Modified Eagle Medium supplemented with 10% FCS, 25 mM HEPES and 30 U/ml penicillin (Invitrogen, Carlsbad, 20 CA, USA)] and incubated for 24 hours at 37° C. in an atmosphere of 95% O2/5% CO2. After that period, the culture medium was replaced with fresh medium containing no compound or 50 μM gentamicin alone or 50 μM gentamicin with either 5 μM pioglitazone, 30 μM pamapimod, or 5 μM pioglitazone+30 μM pamapimod, and incubated for a further 24 hours at 37° C. Ten OC explants were used for each treatment condition.
After incubation with compounds, the OCs were fixed in 4% paraformaldehyde, washed and then stained with a fluorescein (FITC)-conjugated phalloidin to detect inner and outer hair cells. After staining, the OCs were visualized and photographed using a fluorescence microscope (Olympus FSX100). Auditory hair cells were quantified for the basal turn of each organ of Corti in 3 fields corresponding to 80 hair cells each. The average values for the three fields were then averaged for the 10 OCs used for each condition. Significant differences between treatment groups in numbers of hair cells were determined using analysis of variance (ANOVA) followed by the least significant difference (LSD) post-hoc test (Stat View 5.0). Differences associated with P values of less than 0.05 were considered to be statistically significant. All data are presented as mean±SD.
OCs were harvested and then placed in culture medium [Dulbecco's Modified Eagle Medium supplemented with 10% FCS, 25 mM HEPES and 30 U/ml penicillin (Invitrogen, Carlsbad, 20 CA, USA)] and incubated for 24 hours at 37° C. in an atmosphere of 95% O2/5% CO2. After that period, the culture medium was replaced with fresh medium containing no compound or 100 µM gentamicin alone or 100 μM gentamicin with either 1 μM pioglitazone, 1 μM pamapimod, or 1 μM pioglitazone+1 μM pamapimod, and incubated for a further 24 hours at 37° C. The gentamicin concentration of 100 μM was determined as that concentration that leads to 50% loss of hair cells. Batch to batch variation in the activity of gentamicin requires that the concentration used for specific experiments leading to 50% hair cell loss be predefined in pilot experiments for each batch. Ten OC explants were used for each treatment condition.

| Molecule | hair cells lost (Example 1, FIG. 1: 30 μM pamapimod (micronized, Dv50=3 μm) with 50 μM gentamicin) | protection against gentamicin-induced loss of hair cells (in words) | protection from loss of hair cells (Example 2, FIG. 2: 1 μM pamapimod with 100 μM gentamicin) | hair cells lost (Example 1, FIG. 1: 5 μM pioglitazone (micronized, Dv50=4 μm) with 50 μM gentamicin) | protection from loss of hair cells (Example 2, FIG. 2: 1 μM pioglitazone with 100 μM gentamicin) | loss of hair cells (Example 1, FIG. 1: 50 μM gentamicin alone) | loss of hair cells (Example 2, FIG. 2: 100 μM gentamicin alone) |
| --- | --- | --- | --- | --- | --- | --- | --- |
| Cn1c(=O)c(Oc2ccc(F)cc2F)cc2cnc(NC(CCO)CCO)nc21 [pamapimod, 6-(2,4-Difluorophenoxy)-2-[3-hydroxy-1-(2-hydroxyethyl)-propylamino]-8-methyl-8H-pyrido[2,3-d]pyrimidin-7-one] | approximately 20% | partially prevented the loss of hair cells | approximately 30% | – | – | – | – |
| CCc1ccc(CCOc2ccc(CC3SC(=O)NC3=O)cc2)nc1 (centres unmarked) [pioglitazone] | – | partially prevented the loss of hair cells | – | approximately 20% | approximately 40% | – | – |
| gentamicin | – | – | – | – | – | approximately 50% | approximately 50% |
